For data set [1] the following is noted: rat, ICG administered to the blood alone; cited from earlier work.
Data set [2] is described as follows: Retentivity in blood, Colon 26 tumor-bearing mice. The data set is classed as in vivo, mouse. The following applies: tail vein, 13 nmol dye, 24 hours after administration. As to the method:
In order to examine the retentivity in blood and the tumor accumulation of the compound prepared as described above, M5k-ICG, M10k-ICG, M20k-ICG, M30k-ICG, M40k-ICG, and D20k-ICG2 were administered to tail veins of tumor-bearing mice which had been transplanted a Colon 26 cell line. The amount of administration was specified to be 13 nmol in terms of the amount of dye.
A blood sample was taken from a mouse 24 hours after administration, and the blood, 1% Triron, and DMSO were mixed at 2:9:9 in a plastic tube. The amount of dye in the blood was quantified by using IVIS (registered trademark) Imaging System 200 Series (produced by Caliper Life Science Inc.) and measuring the fluorescent intensity in the state of the plastic tube. The proportion of the amount of migration of the dye to the blood relative to the amount (dye 13 nmol) of administration (% injected dose: abbreviated to % ID) per unit weight of the blood is shown in Table 8 as the retentivity of the compound in blood (% ID/g). […]
An intravenous injection of 100 microliters (13 nmol in terms of dye) of M20k-ICGATT into a tumor-bearing mouse model was performed, where a Colon 26 cell was subcutaneously transplanted into the BALB/c Slc-nu/nu mouse. The accumulation in the Colon 26 cell mass and the blood 24 hours after the administration was evaluated by the method described in Example 12.

Data set [3] concerns Colon 26 mouse colon cancer cells containing artificially introduced HER2 genes. The experiment in a line: Tumor accumulation of PEG including capture molecule, Colon 26 (HER2) versus Colon 26 (WT) tumors. It counts as in vivo. The following applies: intravenous, 13 nmol in terms of ICG, 24 hours after administration. From the text: In the evaluation of tumor accumulation, female outbred line BALB/c Slc-nu/nu mouse (6 week-old at the time of purchase) (Japan SLC Inc.) was used. The mouse was adapted to an environment in which a diet and drinking water were able to be consumed freely for a week before the mouse was transplanted a tumor, while standard diet and bed were employed. About 1 week before an imaging experiment, 1×10^6 of Colon 26 mouse colon cancer cells (RIKEN) were subcutaneously injected into each of the right shoulder and the right thigh of the mouse and 1×10^6 of Colon 26 mouse colon cancer cells containing artificially introduced HER2 genes were subcutaneously injected into each of the left shoulder and the left thigh of the mouse. All tumors became established until the experiment and the weights of the mice were 17 to 22 g. […] The amount of dye in the cancer tissue was quantified by using IVIS (registered trademark) Imaging System 200 Series (XENOGEN) and measuring the fluorescent intensity of the solution of dye extracted from the tumor tissue and the standard solution for calibration in the state of the plastic tube. […]
In addition, ratios of the amount of accumulation into the Colon 26 mouse colon cancer cells containing artificially introduced HER2 genes relative to the amount of accumulation into the Colon 26 mouse colon cancer cells were calculated and are summarized in Table 12. […]

Ends that are not written are not given here.

Consider `CC1(C)C(/C=C/C=C/C=C/C=C2\N(CCCCS(=O)(=O)O)c3ccc4ccccc4c3C2(C)C)=[N+](CCCCS(=O)(=O)[O-])c2ccc3ccccc3c21` [ICG, Indocyanine Green], for which the “Time after administration at which photoacoustic signal is reduced to the same level as that of the blood” value in data set [1] is “several tens of minutes”. Further, in data set [2], the Retentivity in blood stood at 0.16 % ID. Turning to “pe-PEG20: PEG ME-200MA (MW 20,000) modified with ICG and peptide MARSGLGGKGSC (also: conjugated to PEG ME-200MA (20 kDa) together with ICG)”, in data set [3], the “Colon26 (HER2)/Colon26 (WT) Ratio of amount of tumor accumulation” value is on record as 0.76. Same read-out and setting: under “pe-PEG40: PEG ME-400MA (MW 40,000) modified with ICG and peptide MARSGLGGKGSC (also: conjugated to PEG ME-400MA (40 kDa) together with ICG)” stands 0.88.

(Values after patent publication US9592307B2, “Compound and photoacoustic imaging contrast medium containing the compound” (CANON KABUSHIKI KAISHA, priority 2012, dated 2017).)
